Experimental data taken from PubChem BioAssay (NCI).
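Protocol summary: plate cells (96-well), add compound at 5 concentrations, incubate 48 h, interpolate endpoints linearly. GI50 = concentration required for 50% inhibition of growth. At the TGI there is no net growth.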

What was measured:
Assay in all cases: DTP human tumour cell line panel, 48 h
HCC-2998 colon = system: HCC-2998 colon
HCT-116 colon = system: HCT-116 colon
XF 498 CNS = system: XF 498 CNS
SNB-78 CNS = system: SNB-78 CNS
M14 melanoma = system: M14 melanoma
SR leukemia = system: SR leukemia
HOP-62 NSCLC = system: HOP-62 NSCLC
HT29 colon = system: HT29 colon
M19-MEL melanoma = system: M19-MEL melanoma
DMS 273 small cell lung = system: DMS 273 small cell lung

Structure (SMILES)	TGI (HCC-2998 colon) [µM]	TGI (HCT-116 colon) [µM]	TGI (XF 498 CNS) [µM]	TGI (SNB-78 CNS) [µM]	TGI (M14 melanoma) [µM]	TGI (SR leukemia) [µM]	TGI (HOP-62 NSCLC) [µM]	TGI (HT29 colon) [µM]	TGI (M19-MEL melanoma) [µM]	TGI (DMS 273 small cell lung) [µM]	GI50 (HCC-2998 colon) [µM]	GI50 (HCT-116 colon) [µM]	GI50 (DMS 273 small cell lung) [µM]	GI50 (SNB-78 CNS) [µM]	GI50 (M14 melanoma) [µM]	GI50 (SR leukemia) [µM]	GI50 (HT29 colon) [µM]
C[C@]12CCC(=O)C(O)=C1CC[C@@H]1[C@@H]2CC[C@]2(C)C(=O)CC[C@@H]12	> 100	> 100	> 100	> 100	> 100	> 100	> 100	> 100									
CCOP(=O)(OCC)/C(C#N)=C/c1ccco1	> 100	> 100	> 100	> 100	> 100	> 100	> 100	> 100	> 100								
CCOC(=O)c1ccc(N2C(=O)/C(=C\OC)c3ccccc3C2=O)cc1	> 100	> 100		> 100		> 100		> 100	> 100	> 100							
CC1NOC(=O)C1N=Nc1ccccc1Cl (stereo not given)	> 100	> 100	> 100	> 100	> 100		> 100		60.4								
CC(=O)/C=C/c1ccc(C2CC(C)=Nc3c(ccc4c3C(=O)c3ccccc3C4=O)N2)cc1 (stereo not given)	> 100	> 100	> 100	> 100	> 100	> 100	> 100	> 100	> 100	> 100							
CS(=O)c1ccc(COP(N)(=O)N(CCCl)CCCl)cc1 (stereo not given)	> 100	> 100	> 100	> 100	> 100	> 100	> 100	> 100	> 100	> 100							
CCOC(CN=c1nc(N(C)C)ss1)OCC	> 100	31.2	47.1	51.5	35.5	12.2	> 100	17.5	19.1	> 67.9							
ON=C1CCC(c2ccccc2)CC1 (stereo not given)	> 100	> 100	> 100	> 100	> 100		> 100	> 100	> 100	> 100							
COC(=O)c1nc(NC#N)[nH]c(=O)c1C	> 100	> 100		> 100	> 100		> 100	> 100	> 100	> 100							
CCOC(=O)C1C(=O)c2ccccc2CN1Cc1ccccc1 (stereo not given)	> 100	> 100	> 100	> 100	> 100	> 100	> 100	> 100	> 100	> 100							
COc1ccc(/C=C2/C[N+](C)(C)C/C(=C/c3ccc(OC)cc3)C2=O)cc1	31	> 100	> 100	> 100	> 100		> 100	> 100	69.4	51.3							
O=C(c1ccccc1)c1c(C(=O)c2ccccc2)c(-c2ccccc2)c2c(-c3ccccc3)sc(-c3ccccc3)c2c1-c1ccccc1	> 100	> 100	> 100	> 100	> 100		> 100	> 100	> 100	> 100							
O=c1cc2ccccc2nn1-c1ccccc1Cl	> 100	> 100	77.5	> 100	> 100		> 100	> 100	> 100	> 100							
C=C1CC[C@@H]2C(C)(C)CCC[C@@]2(C)[C@@H]1Cc1cc(O)ccc1O	28	16.8		5.25	24.3	12.1	25.8	32.6	11	19.4							
CCOC(=O)C(=O)Nc1c(N(CC)CC)n2ccccc2nc1=O		> 100	> 100	> 100	> 100	> 100	> 100	> 100	> 100	> 100							
O=C(O)c1cc2c(cn1)[nH]c1ccccc12	> 100	> 100		> 100	> 100	> 100	> 100	> 100	> 100	> 100							
COc1ccc2ccc([Se]c3ccc4ccc(OC)cc4c3)cc2c1	> 100	> 100	> 100	> 100	> 100		> 100	> 100	> 100	> 100							
N.N.NC(CS)C(=O)[O-].NC(CS)C(=O)[O-].[Pt+4] (stereo not given)	> 50	> 50		> 50	> 50	> 50		> 50		> 50	> 50	> 50	> 50	> 50	> 50	> 50	> 50
